Source: patent publication US12384795B2, “Pyrimido[5,4-b]pyrrolizin compound, optical isomer thereof, preparation method therefor and use thereof” (SHANGHAI INSTITUTE OF MATERIA MEDICA, CHINESE ACADEMY OF …, priority 2019, dated 2025)
Several values for one entry are separate records, joined by “and”; a condition that tells them apart may be missing. Equal entries are not always repeated. Values belong to the molecule of their own block, whether it stands above or below them.

Columns and labels:
[1] = test system: Human diffuse large B lymphoma cell TMD8; experiment: Inhibition of proliferation of TMD8 cells in vitro (MTT, 72 h); type: cell-based
Procedure: (§1) Cell suspensions (Ramos: 10000 cells/well; TMD8: 12000 cells/well) were seeded in a 96-well plate, placed in an incubator for 2 hours at 37° C., after the cell state was stabilized, different concentrations of tested compounds were added to each well (each concentration was set with 3 duplicate wells), and blank control (only containing culture solution, but not containing cells), negative control (only adding cells, but not adding compounds) and positive compound control were set at the same time. After 72 h treatment, 20 μL MTT (5 mg/ml) was added to each well and incubated for 4 h at 37° C. 100 μL triple solution (10% SDS, 5% isobutanol, 0.01 M HCl) was added and placed overnight at 37° C. The OD value was measured with microplate enzyme-labeled instrument SPECTRA MAX Plus 384 with adjustable wavelength at 570 nm.
(§2) The inhibition rate of the compound was obtained by the following formula: […]
(§3) The IC50 value was obtained by four-parameter regression using the software attached to the microplate reader.

[2] = test system: Human B lymphoma cell Ramos (Burkitt lymphoma); experiment: Inhibition of proliferation of Ramos cells in vitro (MTT, 72 h); type: cell-based
Procedure: as §1, §2, §3

[3] = Further study of metabolism of earlier compounds; type: in vitro ADME; settings: 4-position of terminal phenyl easy to be oxidized
BTK = BTK (Homo sapiens, UniProt Q06187); settings: disclosed in patent CN108101905A; cited from earlier work
[4] = target: BTK tyrosine kinase protein (Homo sapiens, UniProt Q06187); experiment: Inhibitory activity evaluation of Bruton kinase (BTK) at molecular level (ELISA); type: biochemical; settings: ATP 5 μM
Procedure: The enzyme reaction substrate Poly (Glu, Tyr)4:1 was diluted with potassium-free PBS (10 mM sodium phosphate buffer, 150 mM NaCl, pH 7.2-7.4) to 20 μg/ml, and coated enzyme plate. After reacting at 37° C. for 12-16 hours, the plate was washed three times with 200 μL/well T-PBS (PBS containing 0.1% Tween-20) and dried in 37° C. oven for 1-2 hours. 49 μL/well ATP solution (final concentration was 5 μM) diluted with a reaction buffer (50 mM HEPES pH 7.4, 50 mM MgCl2, 0.5 mM MnCl2, 0.2 mM Na3VO4, 1 mM DTT) was firstly added into the substrate-coated plate. 1 μL compound to be tested (compound well) or DMSO with corresponding concentration (negative control well) was added into each well, and enzyme-free control well was set up for each experiment. Then 50 μL of BTK tyrosine kinase protein diluted with reaction buffer was added to start the reaction.
The above reaction system was placed in a shaking table (100 rpm) for 1 hour at 37° C., then the plate was washed with T-PBS for three times, and the primary antigen PY99 100 μL/well (Santa Cruz) was added, and the reaction was carried out in a shaking table for 0.5 hours at 37° C. […]

[5] = test system: human lymphoma TMD8 xenograft; experiment: Anti-tumor activity in vivo, TMD8 xenograft tumor model; design: species or system Mice; settings: for Tumor volume: 17th day, mean ± SEM
Procedure: (§4) • 1) Species: Mice • 2) Strain: CB-17 SCID • 3) Age and body weight: 6-8 weeks; 18-22 g • 4) Sex: Female • 5) Supplier: Beijing Vital River Laboratory Animal Technology Co., Ltd. REC-1 Xenograft Tumor Model • 1) Species: Mice • 2) Strain: BALB/c nude mice • 3) Age and body weight: 6-8 weeks; 17-20 g • 4) Sex: Female • 5) Supplier: Shanghai Lingchang Biotechnology Co., Ltd.
(§5) Conventional treatment was carried out twice a week. When the cell saturation was 80%-90%, the cells were collected, counted and inoculated.
Tumor cell inoculation: 0.2 mL 10×10^6 Human lymphoma TMD8 cells were subcutaneously inoculated into the right back of each nude mouse (PBS:Matrigel=1:1). When the average tumor volume reached 104 mm^3, group administration began. Each group of 6 mice was grouped according to the tumor volume by random grouping software based on Excel.
(§6) The health status and death status of animals were monitored every day. Routine examinations included observing the effects of tumor growth and drug treatment on daily behaviors of animals, such as behavioral activities, food intake and water intake (visual inspection only), weight change (weight measurement three times a week), appearance signs or other abnormal conditions. Based on the number of animals in each group, the number of animal deaths and side effects in each group were recorded.
(§7) Tumor measurement and experimental indexes: the experimental index was to investigate whether the tumor growth is inhibited, delayed or cured. The tumor diameter was measured with vernier caliper three times a week.
(§8) TGI (%), reflecting the tumor growth inhibition rate.
(§9) Relative tumor proliferation rate T/C (%): the calculation formula is as follows:
(§10) T/C %=TRTV/CRTV×100% (TRTV: Relative tumor volume in treatment group; CRTV: Relative tumor volume in negative control group).
(§11) Statistical analysis: Statistical analysis, including the mean value of tumor volume and standard error (SEM) at each time point in each group. […] Three or more groups were compared with one-way ANOVA. If there were significant differences in F values, Games-Howell method was used to test. All data were analyzed with SPSS 17.0. p<0.05 was considered as significant difference.

[6] = Oral bioavailability of earlier compound; settings: in vivo
in vivo = settings: male, Sprague-Dawley (SD), rat
Procedure: Fourteen SD rats, male, weighing 200-220 g, were randomly divided into 4 groups (4/3 rats in each group) and given the tested compounds by intragastric administration and intravenous administration respectively.
0.5% sodium carboxymethyl cellulose (CMC-Na) containing 1% Tween 80 was formulated for intragastric administration, and 5% DMSO/5% Tween 80/90% normal saline was formulated for intravenous administration.
Fasting for 12 hours and drinking water freely before the test. Eat uniformly 2 hours after administration.
At the above set time point, 0.3 ml of venous blood was taken through the posterior venous plexus of the rat eyeball, placed in a heparinized test tube, centrifuged at 11000 rpm for 5 minutes, and the plasma was separated, frozen in the fridge at −20° C.
The concentration of S17016 in rat plasma was determined by LC/MS/MS.

[7] = Metabolic stability test in rat liver microsomes; type: in vitro ADME; settings: RLM, 0.1 μM drug, 0.33 mg/ml microsomes, NADPH
Procedure: (§12) Liver microsomes were incubated in a 96-well plate, and the volume of each incubated system was 450 μL with a medium of 0.1 M Tris buffer (pH 7.4), including liver microsomes with a final concentration of 0.33 mg/ml, 0.1 μM of tested drugs and 5.0 mM MgCl2, 0.01% DMSO, 0.005% BSA and 1.0 mM NADPH. Incubated at 37° C. for 10 min, NADPH was added to initiate the reaction, and 50 μL was taken out and added with the same volume of methanol to terminate the reaction after 0, 7, 17, 30 and 60 min, respectively.
(§13) S17016 in incubated samples was determined by LC/MS/MS with electrospray ionization (ESI) as the ion source and multi-reaction monitoring (MRM) as the scanning mode.
(§14) The experimental results of metabolic stability in vitro of S17016 in different liver microsomes (HLM: human liver microsomes; RLM: rat liver microsomes; MLM: mouse liver microsomes) were shown in Table 9 and FIG. 3 below.

[8] = test system: human mantle cell lymphoma REC-1 xenograft; experiment: Anti-tumor activity in vivo, REC-1 xenograft tumor model; design: species or system Mice; settings: for T/C (%) / TGI (%): day 15; for Tumor volume (mm^3) (Day 15): day 15, mean ± SEM
Procedure: as §4, §5
0.2 mL 5×10^6 REC-1 cells were subcutaneously inoculated into the right back of each nude mouse (PBS:Matrigel=1:1). When the average tumor volume reached 100 mm^3, group administration began. Each group of 6 mice was grouped according to the tumor volume by random grouping software based on Excel.
as §6, §7, §8, §9, §10, §11

[9] = Metabolic stability test in human liver microsomes; type: in vitro ADME; settings: HLM, 0.1 μM drug, 0.33 mg/ml microsomes, NADPH
Procedure: as §12, §13, §14

[10] = Metabolic stability test in mouse liver microsomes; type: in vitro ADME; settings: MLM, 0.1 μM drug, 0.33 mg/ml microsomes, NADPH
Procedure: as §12, §13, §14

Sequence of BTK tyrosine kinase protein (Q06187 whole entry): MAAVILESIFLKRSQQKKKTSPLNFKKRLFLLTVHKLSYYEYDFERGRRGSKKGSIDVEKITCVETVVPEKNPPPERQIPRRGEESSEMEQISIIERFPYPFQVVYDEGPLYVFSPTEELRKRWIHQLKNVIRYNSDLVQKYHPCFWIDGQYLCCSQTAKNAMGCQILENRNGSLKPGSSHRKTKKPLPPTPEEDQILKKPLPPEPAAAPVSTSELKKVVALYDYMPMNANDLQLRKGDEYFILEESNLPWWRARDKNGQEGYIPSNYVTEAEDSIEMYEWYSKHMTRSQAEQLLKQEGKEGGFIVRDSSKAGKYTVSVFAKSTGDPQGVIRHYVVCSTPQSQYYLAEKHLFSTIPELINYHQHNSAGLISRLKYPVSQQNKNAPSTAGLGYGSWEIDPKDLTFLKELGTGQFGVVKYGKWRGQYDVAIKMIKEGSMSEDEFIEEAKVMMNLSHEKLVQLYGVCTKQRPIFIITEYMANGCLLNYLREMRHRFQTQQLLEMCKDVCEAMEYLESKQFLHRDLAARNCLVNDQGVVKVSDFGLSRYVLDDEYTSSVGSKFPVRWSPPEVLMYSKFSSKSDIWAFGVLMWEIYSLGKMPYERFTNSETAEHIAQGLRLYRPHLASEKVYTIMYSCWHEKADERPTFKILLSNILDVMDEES
Sequence of BTK (Q06187 whole entry): as above

IC50 [1]: 23 nM
IC50 [2]: 38200 nM
Structure (SMILES): CC#CC(=O)N1CCC[C@H]1c1nc(-c2ccc(C(=O)Nc3ccccn3)cc2)c2c(N)nccn12 [Acalabrutinib]

Structure (SMILES): C=CC(=O)N[C@@H]1CCc2c(-c3ccc(Oc4ccccc4)cc3)c3c(N)ncnc3n2C1 [Compound S1]
IC50 [1]: 6 nM
stability in metabolism [3]: unstable in metabolism
IC50 [2]: 94700 nM
BTK inhibitory activity (BTK): high BTK inhibitory activity

Structure (SMILES): CC#CC(=O)N[C@@H]1CCc2c(-c3ccc(Oc4ccccc4)cc3)c3c(N)ncnc3n2C1 [Compound S10]
IC50 [1]: 30 nM
IC50 [4]: < 10 nM
stability in metabolism [3]: unstable in metabolism
IC50 [2]: 8720 nM
BTK inhibitory activity (BTK): high BTK inhibitory activity

IC50 [1]: 16 nM
stability in metabolism [3]: unstable in metabolism
IC50 [2]: 5040 nM
Structure (SMILES): C=CC(=O)NC1Cn2c(c(-c3ccc(Oc4ccccc4)cc3)c3c(N)ncnc32)C1=C (stereo not drawn) [Compound S18s, reference compound]
T/C (%) ([5]; 15 mg/kg, day 0): 100%
T/C (%) ([5]; 15 mg/kg, day 6): 53.51%
T/C (%) ([5]; 15 mg/kg, day 8): 47.28%
T/C (%) ([5]; 15 mg/kg, day 11): 37.73%
T/C (%) ([5]; 15 mg/kg, day 13): 34.97%

IC50 [1]: 17 nM
stability in metabolism [3]: unstable in metabolism
Structure (SMILES): C=C1c2c(-c3ccc(Oc4ccccc4)cc3)c3c(N)ncnc3n2CC1NC(=O)C#CC (stereo not drawn) [Compound S19s]

IC50 [1]: 4 nM
IC50 [2]: 14300 nM
oral bioavailability [6]: not ideal
Structure (SMILES): C=CC(=O)NC1Cn2c(c(-c3ccc(C(=O)Nc4ccccn4)cc3)c3c(N)ncnc32)C1=C (stereo not drawn) [Compound S20s]

Structure (SMILES): C=C1c2c(-c3ccc(C(=O)Nc4ccccn4)cc3)c3c(N)ncnc3n2C[C@H]1NC(=O)C#CC [Compound S17016]
IC50 [1]: 3 nM
IC50 [4]: 0.5 nM
bioavailability (in vivo; in vivo): 24.8%
Vd (in vivo; in vivo, iv, 1 mg/kg): 0.221 L/kg
clearance (in vivo; in vivo, iv, 1 mg/kg): 3.33 mL/min/kg
half-life (in vivo; in vivo, iv, 1 mg/kg): 75.6 min
AUC (in vivo; in vivo, po, 3 mg/kg): 3860 ng·h/mL
Cmax (in vivo; in vivo, po, 3 mg/kg): 2700 ng/mL
Tmax (in vivo; in vivo, po, 3 mg/kg): 15 min
Absolute value of peak area, M0: parent compound [7]: 12675
M0: parent compound, share of peak area [7]: (84.07%)
IC50 [2]: 3150 nM
T/C (%) ([8]; 15 mg/kg): 30%
TGI (%) ([8]; 15 mg/kg): 73%
Tumor volume (mm^3) (Day 15) ([8]; 15 mg/kg, 15 mg/kg): 1034 mm^3 and 1034 ± 202 mm^3
T/C (%) ([8]; 30 mg/kg): 19%
TGI (%) ([8]; 30 mg/kg): 83%
Tumor volume (mm^3) (Day 15) ([8]; 30 mg/kg, 30 mg/kg): 680 mm^3 and 680 ± 106 mm^3
Tumor volume ([5]; 5 mg/kg): 912 mm^3 and 912 ± 114 mm^3
T/C (%) ([5]; 5 mg/kg, day 17): 49.27%
TGI (%) ([5]; 5 mg/kg, day 17): 53.78%
Tumor volume ([5]; 10 mg/kg): 553 mm^3 and 553 ± 56 mm^3
T/C (%) ([5]; 10 mg/kg, day 0): 100%
T/C (%) ([5]; 10 mg/kg, day 5): 48.31%
T/C (%) ([5]; 10 mg/kg, day 8): 39.22%
T/C (%) ([5]; 10 mg/kg, day 10): 34.25%
T/C (%) ([5]; 10 mg/kg, day 12): 30.90%
T/C (%) ([5]; 10 mg/kg, day 15): 30.56%
T/C (%) ([5]; 10 mg/kg, day 17): 29.85%
TGI (%) ([5]; 10 mg/kg, day 17): 74.35%
Absolute value of peak area, M0: parent compound [9]: 20285
M0: parent compound, share of peak area [9]: (97.45%)
Absolute value of peak area, M0: parent compound [10]: 19033
M0: parent compound, share of peak area [10]: (97.82%)

IC50 [1]: 5 nM
bioavailability (in vivo; plasma, oral, 3 mg/kg): 4%
AUC (in vivo; plasma, po, 3 mg/kg): 57 ng·h/mL
IC50 [2]: 12900 nM
Structure (SMILES): C=CC(=O)N1CCC[C@@H](n2nc(-c3ccc(Oc4ccccc4)cc3)c3c(N)ncnc32)C1 [Ibrutinib, reference compound]
TGI (%) ([8]; 25 mg/kg): 64%
Tumor volume (mm^3) (Day 15) ([8]; 25 mg/kg, 25 mg/kg): 1323 mm^3 and 1323 ± 195 mm^3
Tumor volume ([5]; 25 mg/kg): 661 mm^3 and 661 ± 168 mm^3
TGI (%) ([5]; 25 mg/kg, day 17): 68.18%
